“Also recorded” adds a separate entry of the source. Read-outs that look alike come from different tables or passages of the source.
Assays:
PDGF-R = experiment: PDGF-BB-stimulated PDGF-R autophosphorylation, C6 cells, western blot; assay type: cell-based, rat; design: PDGF stimulated receptor phosphorylation: dose or concentration left out as unconfirmed
Method: For western blotting, cells were plated in 2 mL growth medium into 6-well dishes (500,000 cells per well) and allowed to attach overnight. The medium was replaced with 2 mL MCDB 105 (UCSF Cell Culture Facility) supplemented with 1% FBS. The plates were then incubated overnight at 37° C., ambient CO2. […] After a 7 min incubation at room temperature with ligand, the plates were put on ice and washed three times with 1 mL ice-cold PBS plus 1 mM orthovanadate. Lysis was achieved by pipetting cells in 0.5 mL of buffer containing 50 mM Tris, pH 7.4, 10% glycerol, 1% NP-40, 2 mM EDTA, 1 mM sodium vanadate (Na3 VO4), 10 mM pyrophosphate, 1 mM PMSF, 10 mg/mL aprotinin, 10 mg/mL leupeptin. […] The integrity of the protein-to-membrane transfer was determined by staining with 1% Ponceau S in 5% acetic acid for 5 min. […] Phosphotyresine was detected by incubating the membrane (1 hr at room temperature) with an anti-phosphotyosine antiserum diluted in blocking buffer at 1:3000. […]
Proteins were then separated by SDS-polyacrylamide gel electrophoresis (PAGE). […] The level of phosphorylated tyrosine was determined by quantitating the amount of bound anti-phosphotyrosine. Quantitation was carried out by peak area integration using a Molecular Dynamics Computing Densitometer (Model 300S), and Image Quant v3.0 software (Molecule Dynamics). […]

A431 epidermoid tumor = experiment: SC xenograft in mice; assay type: in vivo, human
Method: (§1) Cell lines were grown in appropriate medium (see Appendix 1). Cells were harvested at or near confluency with 0.05% Trypsin-EDTA and pelleted at 450×g for 10 min. Pellets were resuspended in sterile PBS or media (without FBS) to a particular concentration and the cells were implanted into the hindflank of mice. Tumor growth was measured over 3 to 6 weeks using venier calipers. Tumor volumes were calculated as a product of length×width×height unless otherwise indicated. P values were calculated using the Students' t-test.
(§2) C6 and SKOV-3(T) cells were grown in culture, as described in "cell growth" above, and implanted into the hind flank of a female Balb/c nu/nu mouse at 3×10^6 cells (for C6 experiments), or 1×10^7 cells (for SKOV-3 experiments) in […] of PBS on Day 0. U87MG, U118MG or U373MG human glioblastoma cells (obtained from the ATCC), or A4312 were also implanted into athymic mice. […] Tumors were measured using venier calipers and tumor volume was calculated as a product of tumor length, width, and height.

SKOV3T ovarian tumor = experiment: SC xenograft in mice; assay type: in vivo, human
Method: as §1, §2

U118 glioblastoma = experiment: SC xenograft in mice; assay type: in vivo, human; settings: 15 mg/kg
Method: as §1, §2

U373MG glioblastoma = experiment: SC xenograft in mice; assay type: in vivo, human
Method: as §1, §2

U87MG glioblastoma = experiment: SC xenograft in mice; assay type: in vivo, human
Method: as §1, §2

[1] = mouse, in vivo
Method: Plasma was prepared and frozen in liquid nitrogen. Tissues and organs were resected and immediately frozen in liquid nitrogen. After the addition of an internal standard, plasma samples were acidified with HCl and extracted with acetonitrile. The acetonitrile fraction was evaporated to dryness in a vacuum centrifuge with heating and redissolved in methanol. Tissue and organ samples were homogenized according to the weight ratio of 1:5 (w:v) in 50 mM Tris-HCl, pH 7.4, at 20,000 rev/min, using a tissue homogenizer (Brinkmann Polytron Model PT3000). After the addition of an internal standard, the homogenate was acidified with HCl and then extracted with acetonitrile. The acetonitrile fraction was then extracted with an equal volume of diethyl ether. The ether fraction was evaporated to dryness in a vacuum centrifuge with heating and redissolved in methanol.
Samples for HPLC analysis were injected onto a Hewlett Packard Hypersil 5-μm C18 cartridge column (100×4.6 mm). The mobile phase was methanol:35 mM KH2 PO4 (pH 4.5) 55:45 containing 4 mM triethylamine. The flow rate was 1.2 mL/min. The compounds were monitored by UV absorption at 254 nm using a Hewlett-Packard diode-array detector (HP Model 1090). Plasma and tissue concentrations were determined from standard curves using peak area for quantitation. […] The internal standard used was 5-methyl-pyrazole-4-carboxylic acid-(4-trifluoromethyl)-anilide.
Table XXII. […] Plasma and brain samples were prepared and analyzed by HPLC as described in Appendix 6. All results were calculated by the method of internal standardization. NT= not tested, ND= not detected.

[2] = mice xenotransplanted with human ovarian cancer cells

Cc1oncc1C(=O)Nc1ccc(C(F)(F)F)cc1 [Compound A10, 5-methylisoxazole-4 carboxylic acid-(4-trifluromethyl)-anilide]
reduction of PDGF-R phosphorylation (PDGF-R; 200 mM A10, 20 ng/ml PDGF-BB): reduced PDGF-R phosphorylation below that occurring in the absence of PDGF-BB stimulation
PDGF stimulated receptor phosphorylation (PDGF-R; increasing concentrations (50, 100)): reduced PDGF stimulated receptor phosphorylation
effect on A431 tumor growth (A431 epidermoid tumor; 15 mg/kg/day, DMSO): no more than 25%
growth of xenograft (A431 epidermoid tumor; 12 to 20 mg/kg/day): did not significantly inhibit the growth of xenotransplanted cells expressing EGF receptor; also recorded: failed to significantly inhibit the growth
% Inhibition (A431 epidermoid tumor; nu/nu, 15 mg/kg/day, day 15): 40%
inhibition in tumor growth (SKOV3T ovarian tumor; 15 mg/kg/day (DMSO), after 20 days): greater than 90%
cytotoxicity or mortality (SKOV3T ovarian tumor; [2]): without significant cytotoxicity or mortality
ovarian tumor growth (SKOV3T ovarian tumor; [2]): nearly complete inhibition of ovarian tumor growth
% Inhibition (SKOV3T ovarian tumor; nu/nu, 15 mg/kg/day, day 21): 94%
In Vivo inhibition (SKOV3T ovarian tumor; xenografted athymic mice): 95%
% Inhibition (U118 glioblastoma): 57%
% Inhibition (U373MG glioblastoma; 15 mg/kg): 54%
% Inhibition (U373MG glioblastoma; nu/nu, 15 mg/kg/day, day 37): 54%
% Inhibition (U87MG glioblastoma; 5 mg/kg): 52%
% Inhibition (U87MG glioblastoma; 10 mg/kg): 58%
% Inhibition (U87MG glioblastoma; 15 mg/kg): 66%
% Inhibition (U87MG glioblastoma; 20 mg/kg): 92%
plasma concentration, single dose ([1]; 20 mg/kg): not detected
plasma concentration, single dose ([1]; 40 mg/kg): not detected

From US6331555A, “Treatment of platelet derived growth factor related disorders such as cancers” (priority 1999, dated 2001)
